Reference: ChEMBL document CHEMBL1201862, “PubChem BioAssay data set” (2004)
Activity calls are given as the source filed them.

Legend:
cells = format: functional
[1] = biological target: T1, Polyadenylate-binding protein 1 (Homo sapiens, UniProt P11940); test: MLLE domain peptide-binding blockers, IC50 – biochemical, fluorescence polarization, FITC-PAM2 peptide, dose response (AID 602259); format: functional; conditions: read-out: IC50_Mean
[2] = biological target: T1, Polyadenylate-binding protein 1; test: MLLE binding blockers, Cy5 peptide tracer – biochemical, fluorescence polarization, Cy5-PAM2 peptide, secondary, miRNA deadenylation inhibitor project, dose response (AID 602260); format: functional; conditions: read-out: IC50_Mean
[3] = biological target: T2, High affinity choline transporter 1 (Homo sapiens, UniProt Q9GZV3); test: human choline transporter blockers, potency – cell-based, 5-point CRC, membrane potential dye, dose response (AID 504840); format: functional
T2 sequence (Q9GZV3 whole entry): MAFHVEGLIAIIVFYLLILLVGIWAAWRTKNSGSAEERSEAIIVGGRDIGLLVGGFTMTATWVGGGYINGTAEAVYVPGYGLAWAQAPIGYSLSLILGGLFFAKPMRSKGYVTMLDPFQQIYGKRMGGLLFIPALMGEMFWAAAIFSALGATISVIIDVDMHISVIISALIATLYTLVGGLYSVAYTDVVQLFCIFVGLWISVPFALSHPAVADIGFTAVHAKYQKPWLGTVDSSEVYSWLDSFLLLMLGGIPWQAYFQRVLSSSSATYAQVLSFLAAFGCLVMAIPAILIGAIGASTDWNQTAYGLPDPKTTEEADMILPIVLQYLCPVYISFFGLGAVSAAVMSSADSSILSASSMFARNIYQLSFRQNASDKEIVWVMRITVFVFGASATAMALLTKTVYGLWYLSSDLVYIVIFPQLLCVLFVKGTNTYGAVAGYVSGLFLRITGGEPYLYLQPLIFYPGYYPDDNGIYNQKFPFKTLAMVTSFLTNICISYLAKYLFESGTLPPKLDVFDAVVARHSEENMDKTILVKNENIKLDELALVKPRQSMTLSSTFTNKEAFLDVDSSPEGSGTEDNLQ

[4] = biological target: T3, Replicative DNA helicase DnaB (Mycobacterium tuberculosis, UniProt P9WMR3); test: DnaB intein splicing inhibitors, dose response, biochemical, cell-free fluorescence (AID 449749); format: functional
T3 sequence (P9WMR3 whole entry): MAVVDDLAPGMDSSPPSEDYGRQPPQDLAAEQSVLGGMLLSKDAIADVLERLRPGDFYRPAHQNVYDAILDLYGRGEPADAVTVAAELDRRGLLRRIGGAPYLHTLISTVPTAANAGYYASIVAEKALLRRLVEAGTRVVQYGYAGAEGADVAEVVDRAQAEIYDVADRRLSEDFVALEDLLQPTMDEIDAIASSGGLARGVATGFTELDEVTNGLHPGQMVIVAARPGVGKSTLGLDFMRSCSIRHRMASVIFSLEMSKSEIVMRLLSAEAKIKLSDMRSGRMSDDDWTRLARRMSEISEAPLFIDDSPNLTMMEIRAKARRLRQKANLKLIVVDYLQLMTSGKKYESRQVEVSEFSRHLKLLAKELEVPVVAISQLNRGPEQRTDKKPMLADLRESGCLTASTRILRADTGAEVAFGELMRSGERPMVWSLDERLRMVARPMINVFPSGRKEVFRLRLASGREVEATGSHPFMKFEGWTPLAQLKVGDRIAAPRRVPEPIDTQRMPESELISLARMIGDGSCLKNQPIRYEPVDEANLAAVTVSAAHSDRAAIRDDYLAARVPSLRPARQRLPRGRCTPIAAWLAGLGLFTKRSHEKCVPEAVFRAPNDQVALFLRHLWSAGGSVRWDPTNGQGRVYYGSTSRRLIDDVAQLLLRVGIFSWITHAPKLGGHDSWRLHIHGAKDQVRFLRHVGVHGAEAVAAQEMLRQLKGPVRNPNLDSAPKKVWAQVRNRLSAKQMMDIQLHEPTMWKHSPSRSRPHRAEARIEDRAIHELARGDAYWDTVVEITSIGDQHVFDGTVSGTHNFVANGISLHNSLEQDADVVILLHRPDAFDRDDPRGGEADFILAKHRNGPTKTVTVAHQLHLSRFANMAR

[5] = biological target: FAD-linked sulfhydryl oxidase ALR (Homo sapiens, UniProt P55789); test: ALR-catalysed DTT oxidation blockers – biochemical, H2O2 detection, luminescence, cherry-pick, dose response (AID 493248)
Protein RecA = biological target: T4, Protein RecA (Mycobacterium tuberculosis, UniProt P9WHJ3); test: Fluorescence Cell-Free Homogeneous Dose Retest to Identify Inhibitors of RecA-Intein Splicing Activity. [Related pubchem assays (depositor defined):AID2097, AID2223, AID489010, AID492950]; format: functional
T4 sequence (P9WHJ3 whole entry): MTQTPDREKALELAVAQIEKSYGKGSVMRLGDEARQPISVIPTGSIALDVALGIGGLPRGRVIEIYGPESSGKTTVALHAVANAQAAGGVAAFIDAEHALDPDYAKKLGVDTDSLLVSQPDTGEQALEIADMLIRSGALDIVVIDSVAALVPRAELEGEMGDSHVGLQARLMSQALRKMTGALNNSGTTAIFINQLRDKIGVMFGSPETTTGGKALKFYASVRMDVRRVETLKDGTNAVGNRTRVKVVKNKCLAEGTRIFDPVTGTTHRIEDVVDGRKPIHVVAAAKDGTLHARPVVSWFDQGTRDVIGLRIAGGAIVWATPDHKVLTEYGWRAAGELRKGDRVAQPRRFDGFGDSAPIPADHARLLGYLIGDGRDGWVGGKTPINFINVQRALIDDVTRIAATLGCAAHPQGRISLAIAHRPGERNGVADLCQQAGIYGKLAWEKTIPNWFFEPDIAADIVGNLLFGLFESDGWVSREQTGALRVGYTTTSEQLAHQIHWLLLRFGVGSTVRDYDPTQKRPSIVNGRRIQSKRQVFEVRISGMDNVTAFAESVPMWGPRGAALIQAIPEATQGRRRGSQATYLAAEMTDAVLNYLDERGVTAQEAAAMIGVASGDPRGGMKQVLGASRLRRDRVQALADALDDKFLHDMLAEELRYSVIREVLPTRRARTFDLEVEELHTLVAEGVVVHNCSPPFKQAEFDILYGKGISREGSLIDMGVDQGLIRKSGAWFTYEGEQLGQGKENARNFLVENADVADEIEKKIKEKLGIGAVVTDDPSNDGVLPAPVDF

Large T antigen = Large T antigen (Simian virus 40, UniProt P03070); format: functional, Betapolyomavirus macacae;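 note: Confirmatory-stage PubChem screen for compounds that inhibit SV40 T antigen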
[6] = non-specific 3'UTR reporter inhibition in Clone20-Shn3RL – cell-based, Renilla luciferase, cherry-picked, counter-screen for Shn3 inhibitor project, dose response (AID 624133); format: functional
[7] = blockers of HIV-1 ZM109 envelope-driven cell-cell fusion – HeLa effector, CEM target cells, luciferase, cherry-pick, dose response (AID 652058); format: functional, cell-based;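 note: luciferase signal from HIV-1 Env mediated cell-cell fusion of effector and target cells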
[8] = loss of viability in HepG2 cells – cell-based, CellTiter-Glo, cherry-picked, cytotoxicity control for Shn3 inhibitor project, dose response (AID 624134); format: functional
[9] = reduction of Shn3 3'UTR-driven luciferase in osteoblasts – cell-based, Clone20 osteoblasts, firefly luciferase, cherry-picked, dose response (AID 624132); format: functional;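 note: firefly luciferase luminescence from reporter carrying the Shn3 3'UTR in osteoblasts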
[10] = HIV-1 AD8 envelope cell-cell fusion blockers – cherry-pick, dose response (AID 652062); format: functional, cell-based;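 note: luciferase signal from cell-cell fusion driven by HIV-1 clade B AD8 Env; potency is for inhibitors of fusion seen as a drop in luminescence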
INS1 = test: INS-1E survival protection against cytokine death – cell-based, luminescence, retest, dose response (AID 449756); format: functional; conditions: Rattus norvegicus;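 note: cell death triggered by IL-1 beta plus TNF-alpha plus IFN-gamma mixture; protective hits raise ATP signal compared with cytokine alone wells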
BJ [11] = test: BJ-TERT fibroblast viability loss – cell-based, RAS-independent, luminescence, dose response (AID 1933); format: functional; conditions: Homo sapiens
BJ [12] = test: cells; format: functional, cell-based; conditions: Homo sapiens
[13] = DRD fibroblast viability loss – cell-based, non-viral oncogenic, luminescence, dose response (AID 1934); format: functional; conditions: Homo sapiens
BJ [14] = test: BJ-TERT-LT-ST fibroblast viability loss – cell-based, RAS-independent, luminescence, dose response (AID 1935); format: functional; conditions: Homo sapiens;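 note: BJ fibroblasts immortalized with TERT plus LT and ST oncogenes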

T1 sequence (P11940 whole entry, the tested form may be a part): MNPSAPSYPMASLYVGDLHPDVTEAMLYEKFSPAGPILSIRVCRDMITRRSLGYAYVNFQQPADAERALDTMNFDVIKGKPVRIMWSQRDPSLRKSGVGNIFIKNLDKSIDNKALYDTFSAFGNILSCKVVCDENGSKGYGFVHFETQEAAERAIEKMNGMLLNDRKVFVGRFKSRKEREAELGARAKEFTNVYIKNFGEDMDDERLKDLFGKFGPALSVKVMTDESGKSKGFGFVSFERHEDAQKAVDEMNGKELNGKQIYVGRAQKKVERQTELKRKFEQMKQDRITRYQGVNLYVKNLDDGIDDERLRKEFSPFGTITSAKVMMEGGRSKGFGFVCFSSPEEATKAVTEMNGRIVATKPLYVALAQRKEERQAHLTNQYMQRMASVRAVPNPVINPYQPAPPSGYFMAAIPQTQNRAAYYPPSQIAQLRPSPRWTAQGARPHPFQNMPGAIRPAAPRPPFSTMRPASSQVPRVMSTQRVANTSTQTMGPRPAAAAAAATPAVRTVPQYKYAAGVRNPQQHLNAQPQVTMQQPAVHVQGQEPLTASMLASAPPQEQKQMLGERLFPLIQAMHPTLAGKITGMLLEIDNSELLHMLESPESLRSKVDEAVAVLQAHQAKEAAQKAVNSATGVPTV
Sequence of Large T antigen (P03070 whole entry): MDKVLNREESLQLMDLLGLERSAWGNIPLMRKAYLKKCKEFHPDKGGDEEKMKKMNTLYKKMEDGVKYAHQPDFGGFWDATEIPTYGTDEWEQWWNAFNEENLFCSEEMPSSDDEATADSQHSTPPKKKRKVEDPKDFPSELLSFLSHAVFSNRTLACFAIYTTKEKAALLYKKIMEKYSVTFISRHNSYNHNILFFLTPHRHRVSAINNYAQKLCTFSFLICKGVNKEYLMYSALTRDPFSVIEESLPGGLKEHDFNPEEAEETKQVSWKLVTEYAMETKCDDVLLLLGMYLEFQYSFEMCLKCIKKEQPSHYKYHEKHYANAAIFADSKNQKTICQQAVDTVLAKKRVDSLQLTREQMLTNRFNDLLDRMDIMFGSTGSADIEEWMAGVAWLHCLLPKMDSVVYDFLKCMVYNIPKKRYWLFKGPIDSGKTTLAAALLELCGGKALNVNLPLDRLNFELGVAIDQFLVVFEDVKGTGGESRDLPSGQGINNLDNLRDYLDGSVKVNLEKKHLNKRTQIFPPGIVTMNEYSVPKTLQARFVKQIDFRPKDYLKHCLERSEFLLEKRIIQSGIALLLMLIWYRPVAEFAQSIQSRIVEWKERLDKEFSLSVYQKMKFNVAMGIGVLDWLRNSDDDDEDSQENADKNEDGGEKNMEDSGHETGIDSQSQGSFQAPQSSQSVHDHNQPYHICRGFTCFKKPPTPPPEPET
Sequence of FAD-linked sulfhydryl oxidase ALR (P55789 whole entry): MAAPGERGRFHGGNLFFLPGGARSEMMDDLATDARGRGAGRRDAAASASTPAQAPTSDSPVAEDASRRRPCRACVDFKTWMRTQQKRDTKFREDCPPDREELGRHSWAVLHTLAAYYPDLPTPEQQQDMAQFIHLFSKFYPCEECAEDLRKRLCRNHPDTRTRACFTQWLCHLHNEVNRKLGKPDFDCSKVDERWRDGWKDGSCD

**Q.** For CS(=O)(=O)Nc1cccc2cccnc12, which IC50 (cells) is on record?
**A.** 2.87 µM (active)

**Q.** With NS(=O)(=O)c1cccc2c1c([N+](=O)[O-])cc1nc(O)c(O)nc12 as the compound, how does the IC50 [1] read?
**A.** > 66 µM (inactive)

**Q.** What about the IC50 [2] of the same compound?
**A.** > 66 µM (inactive)

**Q.** With COc1cc2[nH]c(=S)n(NC(=O)c3ccccc3)c(=O)c2cc1OC as the compound, how does the IC50 [1] read?
**A.** > 66 µM (inactive)

**Q.** What about the IC50 [2] of the same compound?
**A.** > 66 µM (inactive)

**Q.** Which results are given for Cc1nnc(Sc2nc3ccccc3o2)c2ccccc12?
**A.** IC50 [3]: 13.5 µM (active); AC50 [4]: 18.4 µM (active); AC50 [5]: 3.26 µM (active); EC50 (Protein RecA): 1.28 µM (active)

**Q.** Which IC50 [1] does the source give for COc1ccc(Cc2c(O)nc(SCC(=O)NC34CC5CC(CC(C5)C3)C4)nc2O)cc1 here?
**A.** > 66 µM (inactive)

**Q.** What about the IC50 [2] of the same compound?
**A.** > 66 µM (inactive)

**Q.** With CC(C)c1ccc(C2CC(=O)N3CN(C)CSC3=C2C#N)cc1 (stereo not drawn) as the compound, how does the IC50 (Large T antigen) read?
**A.** 54.9 µM (active)

**Q.** With O=Cc1c(NCc2ccco2)nc2ccccn2c1=O as the compound, how does the IC50 (cells) read?
**A.** 40.4 µM (active)

**Q.** For COc1ccccc1OCC(=O)c1[nH]c(C)c(C(C)=O)c1C, which AC50 [6] is on record?
**A.** 3.81 µM (active)

**Q.** And the AC50 [7]?
**A.** 2.13 µM (active)

**Q.** And the AC50 [8]?
**A.** > 70 µM (inactive)

**Q.** What about the AC50 [9] of the same compound?
**A.** 3.35 µM (active)

**Q.** What about the AC50 [10] of the same compound?
**A.** 46.4 µM (active)

**Q.** With N#CC(C#N)=C(Nc1ccc(F)cc1)SCc1cccc(F)c1 as the compound, how does the AC50 (INS1) read?
**A.** 3.26 µM (active)

**Q.** What about the EC50 (BJ [11]) of the same compound?
**A.** 13.1 µM (active)

**Q.** And the EC50 (BJ [12])?
**A.** 33.2 µM (active)

**Q.** What about the EC50 [13] of the same compound?
**A.** 29.3 µM (active)

**Q.** And the EC50 (BJ [14])?
**A.** > 150 µM (inconclusive)

**Q.** And the IC50 [3]?
**A.** 4.79 µM (active)

**Q.** For O=C1CC(c2ccccc2)CC(=O)C1Sc1ccc(Cl)cc1 (stereo not drawn), which IC50 [1] is on record?
**A.** > 66 µM (inactive)

**Q.** What about the IC50 [2] of the same compound?
**A.** > 66 µM (inactive)

**Q.** With Cc1ccc(S(=O)(=O)N2[C@@H](c3ccc(Cl)cc3)C(C(=O)O)=CC[C@H]2c2ccc(Cl)cc2)cc1 as the compound, how does the IC50 [3] read?
**A.** 5.01 µM (active)

**Q.** And the IC50 (Large T antigen)?
**A.** > 100 µM (active)
